Assay [1] has as its target T1, AHR (Homo sapiens, UniProt P35869).
T1 construct: endogenous in cells; host or cells: HepG2 (human), transfected with a DRE-luciferase reporter only
T1 sequence (P35869 11-848): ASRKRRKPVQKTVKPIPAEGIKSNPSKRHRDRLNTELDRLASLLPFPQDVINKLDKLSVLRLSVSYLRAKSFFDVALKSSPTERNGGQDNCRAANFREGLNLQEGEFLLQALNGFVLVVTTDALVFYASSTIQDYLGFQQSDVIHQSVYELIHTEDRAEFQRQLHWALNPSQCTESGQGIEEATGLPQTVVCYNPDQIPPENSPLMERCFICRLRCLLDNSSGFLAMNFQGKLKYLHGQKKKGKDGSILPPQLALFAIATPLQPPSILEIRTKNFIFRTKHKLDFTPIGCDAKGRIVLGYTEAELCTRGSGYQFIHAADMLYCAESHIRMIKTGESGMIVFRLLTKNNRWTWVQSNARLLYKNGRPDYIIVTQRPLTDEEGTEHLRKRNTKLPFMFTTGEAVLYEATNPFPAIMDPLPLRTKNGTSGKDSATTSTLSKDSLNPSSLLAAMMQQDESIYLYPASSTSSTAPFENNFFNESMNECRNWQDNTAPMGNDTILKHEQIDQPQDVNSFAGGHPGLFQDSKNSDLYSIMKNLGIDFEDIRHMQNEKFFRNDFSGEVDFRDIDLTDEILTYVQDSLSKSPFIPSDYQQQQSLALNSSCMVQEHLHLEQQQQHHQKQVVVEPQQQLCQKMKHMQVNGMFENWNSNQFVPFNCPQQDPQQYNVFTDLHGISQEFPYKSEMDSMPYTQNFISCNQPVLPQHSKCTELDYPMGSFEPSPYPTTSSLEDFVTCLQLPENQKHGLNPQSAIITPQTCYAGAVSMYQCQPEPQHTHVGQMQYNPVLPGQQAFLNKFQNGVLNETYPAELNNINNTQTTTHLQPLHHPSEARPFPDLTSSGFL
Kind of assay: DRE-Luciferase Reporter Assay, HepG2 (agonist). In kind it is cell-based. The settings on record: HepG2, Table 2; read-out: DRE-Luc HepG2 - Agonist: Average EC50. Put shortly: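 Cells carrying a stably or transiently transfected DRE-luciferase reporter, plated overnight at 37 C, then given agonist for 6, 16 or 24 h before lysis and luciferase read-out. Signal scaled between no ligand (minimum) and activating ligand alone, e.g. TCDD (maximum); EC50 = concentration giving half-maximal luciferase activity.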

Assay [2] deals with T2, AHR (Mus musculus, UniProt P30561).
T2 sequence (P30561 1-848 F348L/P471L): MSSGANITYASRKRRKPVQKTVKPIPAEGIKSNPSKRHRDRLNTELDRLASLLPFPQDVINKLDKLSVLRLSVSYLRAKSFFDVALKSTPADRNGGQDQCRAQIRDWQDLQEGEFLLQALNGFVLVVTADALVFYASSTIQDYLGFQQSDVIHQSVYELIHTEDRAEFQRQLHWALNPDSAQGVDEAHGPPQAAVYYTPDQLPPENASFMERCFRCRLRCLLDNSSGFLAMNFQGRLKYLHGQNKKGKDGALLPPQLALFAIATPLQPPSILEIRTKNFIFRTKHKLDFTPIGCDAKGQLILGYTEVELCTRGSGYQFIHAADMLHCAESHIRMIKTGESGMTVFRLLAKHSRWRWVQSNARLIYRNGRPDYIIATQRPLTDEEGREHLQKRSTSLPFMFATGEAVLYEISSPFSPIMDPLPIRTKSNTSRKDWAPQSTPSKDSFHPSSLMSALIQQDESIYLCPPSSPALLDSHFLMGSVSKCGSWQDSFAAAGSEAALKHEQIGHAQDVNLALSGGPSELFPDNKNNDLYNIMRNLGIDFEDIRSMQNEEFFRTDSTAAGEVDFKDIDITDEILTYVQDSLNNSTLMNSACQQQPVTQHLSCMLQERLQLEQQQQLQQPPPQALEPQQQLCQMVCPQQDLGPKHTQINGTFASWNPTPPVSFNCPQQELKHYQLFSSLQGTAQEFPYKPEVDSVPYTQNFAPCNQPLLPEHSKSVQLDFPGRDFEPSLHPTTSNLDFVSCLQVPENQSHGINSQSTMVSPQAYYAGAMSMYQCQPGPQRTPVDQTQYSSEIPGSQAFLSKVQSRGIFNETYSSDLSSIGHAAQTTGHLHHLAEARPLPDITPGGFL
The assay is described as follows: P450 CYP1A1 Luciferase Assay, Hepa1.6 (agonist). In kind it is cell-based, murine. Conditions: Hepa1.6, Table 2. Put shortly: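 Murine Hepa1-6 (or other murine/human lines) treated with agonist for 6, 16 or 24 h, then lysed and incubated with luminogenic CYP1A1 substrate (e.g. Luciferin-CEE). Luminescence normalised between no-ligand minimum and reference AHR ligand maximum; EC50 is concentration giving half-maximal activation.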

Each structure is given as a SMILES string.

For the molecule `FC(F)(F)c1cccc(Nc2nc(-c3cccc(Cl)c3)cs2)c1` [Compound P-2], the EC50 was < 10 nM at AHR [1] and 100 to 1000 nM at AHR [2].
In the same order, the values of `Nc1cccc(-c2csc(Nc3cccc(C(F)(F)F)c3)n2)c1` [I-10] are < 10 nM and 100 to 1000 nM.

As a reminder, the EC50 is the concentration at which the effect is half-maximal.

For the origin of these results see US12030876B2, “Aryl hydrocarbon receptor (AHR) agonists and uses thereof” (Ikena Oncology, Inc., priority 2019, dated 2024).
